ChEMBL document CHEMBL1151151, “Anti-AIDS agents, 2: Inhibitory effects of tannins on HIV reverse transcriptase and HIV replication in H9 lymphocyte cells” (J Nat Prod, 1990)
Activity calls are given as the source filed them. No cut-off for these calls is given here.

Key:
[1] = system: Human immunodeficiency virus 1; test: Antiviral activity against HIV1 3B infected in human H9 cells assessed as inhibition of viral replication at 9.2 uM treated during viral infection step by p24 antigen capture assay; format: functional, organism-based
[2] = system: Human immunodeficiency virus 1; test: Antiviral activity against HIV1 3B infected in human H9 cells assessed as inhibition of viral replication after 3 days by p24 antigen capture assay; format: functional; parameters: concentration or dose not given beside the values
[3] = system: Human immunodeficiency virus 1; test: Antiviral activity against HIV1 3B infected in human H9 cells assessed as inhibition of viral replication at 18 uM treated after viral infection by p24 antigen capture assay; format: functional, organism-based
[4] = system: Human immunodeficiency virus 1; test: Antiviral activity against HIV1 3B infected in human H9 cells assessed as inhibition of viral replication at 21 uM treated after viral infection by p24 antigen capture assay; format: functional, organism-based
[5] = system: Human immunodeficiency virus 1; test: Antiviral activity against HIV1 3B infected in human H9 cells assessed as inhibition of viral replication at 9.2 uM pretreated before viral infection by p24 antigen capture assay; format: functional, organism-based
[6] = target: Human immunodeficiency virus type 1 reverse transcriptase (Human immunodeficiency virus 1) (UniProt Q72547); test: Inhibition of HIV reverse transcriptase
[7] = system: Human immunodeficiency virus 1; test: Antiviral activity against HIV1 3B infected in human H9 cells assessed as inhibition of viral replication at 18 uM treated during viral infection step by p24 antigen capture assay; format: functional, organism-based
[8] = system: Human immunodeficiency virus 1; test: Antiviral activity against HIV1 3B infected in human H9 cells assessed as inhibition of viral replication at 18 uM pretreated before viral infection by p24 antigen capture assay; format: functional, organism-based
[9] = target: Human immunodeficiency virus type 1 reverse transcriptase (Human immunodeficiency virus 1) (UniProt Q72547); test: Inhibition of HIV reverse transcriptase at 12.5 uM; conditions: TDE = time-dependent effect
[10] = target: Human immunodeficiency virus type 1 reverse transcriptase (Human immunodeficiency virus 1) (UniProt Q72547); test: Inhibition of polymerase activity of HIV reverse transcriptase assessed as residual enzyme activity at 64 uM in presence of 75 ug/ml activated dNA and 25 uM dTTP
[11] = target: Human immunodeficiency virus type 1 reverse transcriptase (Human immunodeficiency virus 1) (UniProt Q72547); test: Inhibition of polymerase activity of HIV reverse transcriptase assessed as residual enzyme activity at 64 uM in presence of 375 ug/ml activated dNA and 5 uM dTTP
[12] = system: Human immunodeficiency virus 1; test: Antiviral activity against HIV1 3B infected in human H9 cells assessed as inhibition of viral replication at 13 uM treated during viral infection step by p24 antigen capture assay; format: functional, organism-based
[13] = Growth inhibition of human H9 cells at 30 uM; format: cell-based; conditions: read-out: GI
[14] = system: Human immunodeficiency virus 1; test: Antiviral activity against HIV1 3B infected in human H9 cells assessed as inhibition of viral replication at 13 uM pretreated before viral infection by p24 antigen capture assay; format: functional, organism-based
[15] = target: Human immunodeficiency virus type 1 reverse transcriptase (Human immunodeficiency virus 1) (UniProt Q72547); test: Inhibition of polymerase activity of HIV reverse transcriptase assessed as residual enzyme activity at 64 uM in presence of 75 ug/ml activated dNA and 5 uM dTTP
[16] = system: Human immunodeficiency virus 1; test: Antiviral activity against HIV1 3B infected in human H9 cells assessed as inhibition of viral replication at 21 uM pretreated before viral infection by p24 antigen capture assay; format: functional, organism-based
[17] = system: Human immunodeficiency virus 1; test: Antiviral activity against HIV1 3B infected in human H9 cells assessed as inhibition of viral replication at 21 uM treated during viral infection step by p24 antigen capture assay; format: functional, organism-based
[18] = target: Human immunodeficiency virus type 1 reverse transcriptase (Human immunodeficiency virus 1) (UniProt Q72547); test: Inhibition of polymerase activity of HIV reverse transcriptase assessed as residual enzyme activity at 46 uM in presence of 75 ug/ml activated dNA and 25 uM dTTP
[19] = target: Human immunodeficiency virus type 1 reverse transcriptase (Human immunodeficiency virus 1) (UniProt Q72547); test: Inhibition of polymerase activity of HIV reverse transcriptase assessed as residual enzyme activity at 46 uM in presence of 75 ug/ml activated dNA and 5 uM dTTP
[20] = target: Human immunodeficiency virus type 1 reverse transcriptase (Human immunodeficiency virus 1) (UniProt Q72547); test: Inhibition of polymerase activity of HIV reverse transcriptase assessed as residual enzyme activity at 46 uM in presence of 375 ug/ml activated dNA and 5 uM dTTP
[21] = system: Human immunodeficiency virus 1; test: Antiviral activity against HIV1 3B infected in human H9 cells assessed as inhibition of viral replication at 10 uM treated during viral infection step by p24 antigen capture assay; format: functional, organism-based
[22] = system: Human immunodeficiency virus 1; test: Antiviral activity against HIV1 3B infected in human H9 cells assessed as inhibition of viral replication at 10 uM pretreated before viral infection by p24 antigen capture assay; format: functional, organism-based

Compound	inhibition (INH) [2] [%]	Activity [3]	Activity [4]	ID50 [6] [µM]	other results
O=C1O[C@@H]2[C@@H](OC(=O)c3cc(O)c(O)c(O)c3-c3c1cc(O)c(O)c3O)[C@H](O)O[C@@H]1COC(=O)c3cc(O)c(O)c(O)c3-c3c(O)c(O)c4oc(=O)c5c(c(O)c(O)c6oc(=O)c3c4c65)-c3c(cc(O)c(O)c3O)C(=O)O[C@@H]21 [PUNICALAGIN]	>50	Active	Active	–	Activity [1]: Active; Activity [5]: Active
O=C(O[C@@H]1O[C@@H]2COC(=O)c3cc(O)c(O)c(O)c3-c3c(cc(O)c(O)c3O)C(=O)O[C@H]2[C@@H]2OC(=O)c3cc(O)c(O)c(O)c3-c3c(cc(O)c(O)c3O)C(=O)O[C@@H]12)c1cc(O)c(O)c(Oc2c(O)c(O)c(O)c3c2C(=O)O[C@H]2[C@@H]4OC(=O)c5cc(O)c(O)c(O)c5-c5c(cc(O)c(O)c5O)C(=O)O[C@H]4[C@@H](OC(=O)c4cc(O)c(O)c(Oc5c(O)c(O)c(O)c6c5C(=O)O[C@H]5[C@@H]7OC(=O)c8cc(O)c(O)c(O)c8-c8c(cc(O)c(O)c8O)C(=O)O[C@H]7[C@H](OC(=O)c7cc(O)c(O)c(Oc8c(O)c(O)c(O)c9c8C(=O)O[C@H]8[C@@H]%10OC(=O)c%11cc(O)c(O)c(O)c%11-c%11c(cc(O)c(O)c%11O)C(=O)O[C@H]%10[C@@H](OC(=O)c%10cc(O)c(O)c(O)c%10)O[C@@H]8COC(=O)c8cc(O)c(O)c(O)c8-9)c7)O[C@@H]5COC(=O)c5cc(O)c(O)c(O)c5-6)c4)O[C@@H]2COC(=O)c2cc(O)c(O)c(O)c2-3)c1	–	–	–	20	–
O=C(O[C@@H]1[C@H](O)C[C@@](OC(=O)c2cc(O)c(O)c(O)c2)(C(=O)O)C[C@H]1OC(=O)c1cc(O)c(O)c(O)c1)c1cc(O)c(O)c(O)c1	>50	Active	Active	–	Activity [7]: Active; Activity [8]: Active
O=C(O)C1=C[C@@H](OC(=O)c2cc(O)c(O)c(O)c2)[C@@H](OC(=O)c2cc(O)c(O)c(O)c2)[C@H](OC(=O)c2cc(O)c(O)c(O)c2)C1	>50	–	–	–	–
O=C1OC[C@H]2O[C@@H](O)[C@H](O)[C@@H](O)[C@@H]2OC(=O)c2cc(O)c(O)c(O)c2-c2c(O)c(O)c3oc(=O)c4c(c(O)c(O)c5oc(=O)c2c3c54)-c2c1cc(O)c(O)c2O [PUNICALIN]	>50	Active	Active	8	Activity [9]: tde; Activity [10]: 34.4%; Activity [11]: 45.3%; Activity [12]: Active; inhibition at 30 µM [13]: 15%; Activity [14]: inactive; Activity [6]: Dose-dependent effect; Activity [15]: 11.4%
O=C(O)C1=C[C@@H](OC(=O)c2cc(O)c(O)c(O)c2)[C@@H](O)[C@H](OC(=O)c2cc(O)c(O)c(O)c2)C1	>50	Active	Active	–	Activity [16]: Active; Activity [17]: Active
O=C1O[C@H]([C@@H]2OC(=O)c3cc(O)c(O)c(O)c3-c3c(O)c(O)c4oc(=O)c5c(c(O)c(O)c6oc(=O)c3c4c65)-c3c(cc(O)c(O)c3O)C(=O)OC[C@H]2O)[C@@H]2OC(=O)c3c(c(O)c(O)c(O)c3[C@H]2O)-c2c1cc(O)c(O)c2O [PUNICACORTEIN C]	>50	Active	Active	5	Activity [1]: Active; Activity [18]: 37.6%; Activity [5]: Active; Activity [19]: 21.5%; Activity [20]: 46.2%
O=C(O)C[C@H]1C(=O)O[C@H]2[C@H](OC(=O)c3cc(O)c(O)c(O)c3)[C@@H](OC(=O)c3cc(O)c(O)c4c3[C@H]1[C@H](O)C(=O)O4)[C@H](OC(=O)c1cc(O)c(O)c(O)c1)O[C@@H]2COC(=O)c1cc(O)c(O)c(O)c1 [CHEBULINIC ACID]	>50	Active	Active	–	Activity [21]: Active; Activity [22]: Active
O=C(O)C[C@@H]1C(=O)O[C@H]2[C@@H]3OC(=O)c4cc(O)c(O)c(O)c4-c4c(cc(O)c(O)c4O)C(=O)OC[C@H]2O[C@@H](OC(=O)c2cc(O)c(O)c(O)c2)[C@@H]3OC(=O)c2cc(O)c(O)c3c2[C@H]1[C@H](O)C(=O)O3 [CHEBULAGIC ACID]	>50	Active	Active	–	Activity [21]: Active; Activity [22]: inactive
